Assays:
[1] = test system: HCV replicon; experiment: HCV replicon luciferase assay; assay type: cell-based, Hepatitis C virus; conditions: Hepatitis C virus, read-out: EC50
Protocol: To prepare plates, HCV replicon cells, with or without a Renilla luciferase reporter gene, were trypsinized and placed into each well of a 96-well plate with titrated test compounds added in columns 3 through 12; columns 1 and 2 contained a control compound (HCV protease inhibitor), and the bottom row contained cells without compound. The plates were then placed in a CO2 incubator at 37 degrees C.
Assays. Subsequent to addition of the test compounds described above (FRET Assay Preparation), at various times the plate was removed and Alamar blue solution (Trek Diagnostics, #00-100) was added per well as a measure of cellular toxicity. After reading in a Cytoflour 4000 instrument (PE Biosystems), plates were rinsed with PBS and then used for FRET assay by the addition of 30 ul of the FRET peptide assay reagent described above (FRET Assay Preparation) per well. The plate was then placed into the Cytoflour 4000 instrument which had been set to 340 excite/490 emission, automatic mode for 20 cycles and the plate read in a kinetic mode. Typically, the signal to noise using an endpoint analysis after the reads was at least three-fold. Alternatively, after Alamar blue reading, plates were rinsed with PBS, 50 ul of DMEM (high glucose) without phenol red was added and plates were then used for luciferase assay using the Promega Dual-Glo Luciferase Assay System.
Compound analysis was determined by quantification of the relative HCV replicon inhibition and the relative cytotoxicity values. To calculate cytoxicity values, the average Alamar Blue fluorescence signals from the control wells were set as 100% non-toxic. The individual signals in each of the compound test wells were then divided by the average control signal and multiplied by 100% to determine […]. To calculate the HCV replicon inhibition values, an average background value was obtained from the two wells containing the highest amount of HCV protease inhibitor at the end of the assay period. These numbers were similar to those obtained from naïve Huh-7 cells.
The background numbers were then subtracted from the average signal obtained from the control wells and this number was used as 100% activity. The individual signals in each of the compound test wells were then divided by the averaged control values after background subtraction and multiplied by 100% to determine percent activity. EC50 values for a protease inhibitor titration were calculated as the concentration which caused a 50% reduction in FRET or luciferase activity. The two numbers generated for the compound plate, percent cytoxicity and percent activity were used to determine compounds of interest for further analysis.

[2] = target: T1, HCV NS5B RdRp genotype 1b (Hepatitis C virus genotype 1b, UniProt Q9WMX2); experiment: Modified HCV NS5B RdRp enzyme assay (with preincubation); assay type: biochemical
T1 construct: The protein was expressed with an 18 amino acid C-terminal truncation to enhance the solubility; made in house; host or cells: E. coli BL21 (DE3), pET21a
Method in brief: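 C-terminally truncated (Δ18) genotype 1b NS5B from E. coli was preincubated (14 nM) with compound, then reaction started with polyA template (0.2 nM), ³H-UTP (0.29 μM) and dT12 primer (20 nM) precaptured on SPA beads. Reaction ran 4 h at 30 °C in pH 7.5 Hepes buffer with 2% DMSO. IC50 came from seven concentrations.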

[3] = test system: HCV replicon; experiment: HCV replicon FRET assay; assay type: cell-based; conditions: Hepatitis C virus; FRET assay; read-out: EC50
Method in brief: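 Replicon cells (± Renilla luciferase reporter) incubated with titrated compound at 37 °C; NS3 protease activity read by FRET peptide cleavage (20 uM EDANS/DABCYL substrate, 340/490 nm kinetic) or luciferase.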

[4] = cells marked **: Luciferase assay
[5] = modified method (with preincubation)

T1 sequence (Q9WMX2 2420-2992): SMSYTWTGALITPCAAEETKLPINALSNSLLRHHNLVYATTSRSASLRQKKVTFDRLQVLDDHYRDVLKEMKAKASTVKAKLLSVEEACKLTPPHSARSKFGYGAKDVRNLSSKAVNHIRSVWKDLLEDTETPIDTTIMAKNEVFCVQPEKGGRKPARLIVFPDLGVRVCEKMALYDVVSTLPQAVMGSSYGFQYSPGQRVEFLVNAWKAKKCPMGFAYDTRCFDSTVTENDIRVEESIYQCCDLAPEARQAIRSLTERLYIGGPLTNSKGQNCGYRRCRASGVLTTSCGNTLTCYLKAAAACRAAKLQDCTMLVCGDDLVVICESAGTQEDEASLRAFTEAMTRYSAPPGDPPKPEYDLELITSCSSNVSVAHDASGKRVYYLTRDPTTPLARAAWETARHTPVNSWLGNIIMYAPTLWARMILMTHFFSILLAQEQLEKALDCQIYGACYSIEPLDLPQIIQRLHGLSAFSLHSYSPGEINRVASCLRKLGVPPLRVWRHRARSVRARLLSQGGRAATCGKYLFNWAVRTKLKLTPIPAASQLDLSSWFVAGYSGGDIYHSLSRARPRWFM

With `COC(=O)/C=C/c1ccc(NC(=O)C2(NC(=O)c3ccc4c(C5CCCCC5)c5n(c4c3)CCCc3occc3-5)CCCC2)cc1` as the molecule, how does the EC50 ([1]; luciferase method) read?
The EC50 was 0.1 to 1 µM.

For `O=C(O)/C=C/c1ccc(NC(=O)C2(NC(=O)c3ccc4c(C5CCCCC5)c5n(c4c3)CCCc3occc3-5)CCCC2)cc1`, which EC50 ([1]; luciferase method) is on record?
Its EC50 is < 0.1 µM.

`O=C(O)/C=C/c1ccc(NC(=O)C2(NC(=O)c3ccc4c(C5CCCCC5)c5n(c4c3)CCCc3ccccc3-5)CCCC2)cc1` was tested. Which EC50 [1, 4] did it give?
Its EC50 is 0.01 to 1 µM.

And the IC50 [2, 5]?
The IC50 was 0.02 to 1 µM.

For `CCNC(=O)N(CCCN(C)C)C(=O)c1ccc2c(C3CCCCC3)c3n(c2c1)CCCc1ccccc1-3`, which EC50 [1, 4] is on record?
Its EC50 is 1 to 10 µM.

With `CCOC(=O)/C=C/c1ccc(NC(=O)C2(NC(=O)c3ccc4c(C5CCCCC5)c5n(c4c3)C(OC)c3ccccc3-5)CCCC2)cc1` (centres unmarked) as the molecule, how does the EC50 [1, 4] read?
Its EC50 is 1 to 10 µM.

`COC1c2ccccc2-c2c(C3CCCCC3)c3ccc(C(=O)NC4(C(=O)Nc5ccc(/C=C/C(=O)O)cc5)CCCC4)cc3n21` (centres unmarked) was tested. Which EC50 [1, 4] did it give?
Its EC50 is 0.01 to 1 µM.

What about the IC50 [2, 5] of the same molecule?
Its IC50 is 0.02 to 1 µM.

With `COC(=O)c1ccc2c(C3CCCCC3)c3n(c2c1)CC(=O)N3Cc1ccccc1` as the molecule, how does the EC50 [1, 4] read?
The EC50 was 1 to 10 µM.

With `O=C(O)c1ccc2c(C3CCCCC3)c3n(c2c1)CC(=O)N3Cc1ccccc1` as the molecule, how does the EC50 [1, 4] read?
The EC50 was > 10 µM.

How did the EC50 [1, 4] turn out when `COC(=O)c1ccc2c(C3CCCCC3)c3n(c2c1)CC(=O)N3` was run?
Its EC50 is 1 to 10 µM.

For `CC(C)(C)OC(=O)/C=C/c1ccc(NC(=O)C2(NC(=O)c3ccc4c(C5CCCCC5)c5n(c4c3)CC(=O)N5Cc3ccccc3)CCCC2)cc1`, which EC50 [1, 4] is on record?
The EC50 was > 10 µM.

How did the EC50 [1, 4] turn out when `CCOC(=O)/C=C/c1ccc(NC(=O)C2(NC(=O)c3ccc4c(C5CCCCC5)c5n(c4c3)CC(=O)Nc3ccccc3-5)CCCC2)cc1` was run?
Its EC50 is 0.01 to 1 µM.

`O=C(O)c1ccc2c(C3CCCCC3)c3n(c2c1)CC/C=C\Nc1ccccc1-3` was tested. Which EC50 [1, 4] did it give?
Its EC50 is 1 to 10 µM.

`Cn1c(-c2ccccc2)c(C2CCCCC2)c2ccc(C(=O)NC3(c4nnnn4CC(=O)O)CCCC3)cc21` was tested. Which EC50 [1, 4] did it give?
The EC50 was > 10 µM.

Which EC50 [1, 4] does the source give for `O=C(O)/C=C/c1ccc(NC(=O)C2(NC(=O)c3ccc4c(C5CCCCC5)c5n(c4c3)C/C=C\CNc3ccccc3-5)CCCC2)cc1` here?
Its EC50 is 0.01 to 1 µM.

And the IC50 [2, 5]?
The IC50 was 0.02 to 1 µM.

For `COC(=O)c1ccc2c(C3CCCCC3)c3n(c2c1)CC(=O)N3c1ccccc1`, which EC50 [1, 4] is on record?
The EC50 was > 10 µM.

How did the EC50 [1, 4] turn out when `O=C(O)c1ccc2c(C3CCCCC3)c3n(c2c1)CC(=O)N3c1ccccc1` was run?
The EC50 was > 10 µM.

With `O=C1Cn2c(c(C3CCCCC3)c3ccc(C(=O)O)cc32)N1` as the molecule, how does the EC50 [1, 4] read?
The EC50 was > 10 µM.

For `O=C(O)c1ccc2c(C3CCCCC3)c3n(c2c1)CCOc1ccccc1-3`, which EC50 [1, 4] is on record?
Its EC50 is 0.01 to 1 µM.

Which EC50 [1, 4] does the source give for `O=C(O)c1ccc2c(C3CCCCC3)c3n(c2c1)CCCn1ccnc1-3` here?
The EC50 was > 10 µM.

What does the source list for `O=C(O)/C=C/c1ccc(NC(=O)C2(NC(=O)c3ccc4c(C5CCCCC5)c5n(c4c3)CCCn3ccnc3-5)CCCC2)cc1`?
EC50 [1, 4]: 1 to 10 µM; IC50 [2, 5]: 0.02 to 1 µM

With `CCOC(=O)/C=C/c1ccc(NC(=O)C2(N(C)C(=O)c3ccc4c(C5CCCCC5)c5n(c4c3)CCCc3ccccc3-5)CCCC2)cc1` as the molecule, how does the EC50 [1, 4] read?
The EC50 was 1 to 10 µM.

What about the IC50 [2, 5] of the same molecule?
Its IC50 is > 1 µM.

Which EC50 [1, 4] does the source give for `COC(=O)c1ccc2c(C3CCCCC3)c3n(c2c1)CC(NC(=O)N1CCOCC1)Cc1ccccc1-3` (centres unmarked) here?
The EC50 was 1 to 10 µM.

For `C[C@@H]1CN(C(=O)C2(F)Cc3ccccc3-c3c(C4CCCCC4)c4ccc(C(=O)O)cc4n3C2)C[C@H](O)O1` (some centres unmarked), which EC50 [3] is on record?
The EC50 was 1 to 10 µM.

What about the IC50 ([2]; preincubation protocol) of the same molecule?
Its IC50 is 0.01 to 1 µM.

How did the EC50 [3] turn out when `COc1cccc2c1C=C(C(=O)N1C[C@@H](C)O[C@@H](C)C1)Cn1c-2c(C2CCCCC2)c2ccc(C(=O)NS(=O)(=O)N(C)C)cc21` was run?
Its EC50 is 0.05 to 1 µM.

And the IC50 ([2]; preincubation protocol)?
Its IC50 is 0.01 to 1 µM.

What does the source list for `COC(=O)c1ccc2c(C3CCCCC3)c3n(c2c1)C(O)c1cc(OC)ccc1-3` (centres unmarked)?
EC50 [3]: > 0.1 µM; IC50 ([2]; preincubation protocol): > 1 µM

`COC(=O)c1ccc2c(C3CCCCC3)c3n(c2c1)C(O)c1cc(OCc2ccccc2)ccc1-3` (centres unmarked) was tested. Which EC50 [3] did it give?
The EC50 was > 0.1 µM.

And the IC50 ([2]; preincubation protocol)?
The IC50 was 1 to 10 µM.

For `COC(=O)c1ccc2c(C3CCCCC3)c3n(c2c1)CC=Cc1ccccc1-3` [Example 1, Methyl 13-cyclohexyl-7H-indolo[2,1-a][2]benzazepine-10-carboxylate], which EC50 ([1]; luciferase method) is on record?
Its EC50 is > 10 µM.

`COC(=O)c1ccc2c(C3CCCCC3)c3n(c2c1)CC=Cc1cc(OCc2ccccc2)ccc1-3` [Example 4, Methyl 13-cyclohexyl-3-benzyloxy-7H-indolo[2,1-a][2]benzazepine-10-carboxylate] was tested. Which EC50 ([1]; luciferase method) did it give?
The EC50 was > 10 µM.

`COC(=O)c1ccc2c(C3CCCCC3)c3n(c2c1)CCCc1cc(O)ccc1-3` [Example 5, Methyl 13-cyclohexyl-3-hydroxy-6,7-dihydro-5H-indolo[2,1-a][2]benzazepine-10-carboxylate] was tested. Which EC50 ([1]; luciferase method) did it give?
Its EC50 is > 10 µM.

Which EC50 ([1]; luciferase method) does the source give for `O=C(O)c1ccc2c(C3CCCCC3)c3n(c2c1)CCOc1cccnc1-3` [Example 13, 13-cyclohexyl-6,7-dihydropyrido[2′,3′:6,7][1,4]oxazepino[4,5-a]indole-10-carboxylic acid] here?
The EC50 was 0.1 to 1 µM.

With `CCOC(=O)c1cc2ccccc2c2c(C3CCCCC3)c3ccc(C(=O)OC)cc3n12` [drawing 141] as the molecule, how does the EC50 [1, 4] read?
Its EC50 is > 10 µM.

Which EC50 [1, 4] does the source give for `O=C(O)c1ccc2c(C3CCCCC3)c3n(c2c1)CC(C(=O)O)Cc1ccccc1-3` (centres unmarked) [drawing 147] here?
The EC50 was > 10 µM.

How did the EC50 [3] turn out when `COC(=O)/C=C/c1ccc(NC(=O)C2(NC(=O)c3ccc4c(C5CCCCC5)c5n(c4c3)CC(=O)Nc3cccnc3-5)CCCC2)cc1` [drawing 159] was run?
Its EC50 is < 0.1 µM.

And the IC50 [2, 5]?
Its IC50 is 0.02 to 1 µM.

How did the EC50 [3] turn out when `O=C(O)/C=C/c1ccc(NC(=O)C2(NC(=O)c3ccc4c(C5CCCCC5)c5n(c4c3)CCCc3ccccc3-5)CCNCC2)cc1` [drawing 160] was run?
Its EC50 is 0.01 to 1 µM.

What about the IC50 [2, 5] of the same molecule?
Its IC50 is 0.02 to 1 µM.

What does the source list for `COC(=O)c1ccc2c(C3CCCCC3)c3n(c2c1)CC(C(=O)OCc1ccccc1)=Cc1ccccc1-3` [drawing 223]?
EC50 [3]: 1 to 10 µM; IC50 [2, 5]: > 1 µM

With `O=C(NS(=O)(=O)C1CC1)c1ccc2c(C3CCCCC3)c3n(c2c1)CC(C(=O)N1CCOCC1)Cc1ccccc1-3` (centres unmarked) [drawing 287] as the molecule, how does the EC50 [3] read?
Its EC50 is 0.01 to 1 µM.

And the IC50 [2, 5]?
The IC50 was 0.02 to 1 µM.

How did the EC50 [3] turn out when `CS(=O)(=O)NC(=O)c1ccc2c(C3CCCCC3)c3n(c2c1)CC(C(=O)N1CCOCC1)Cc1ccccc1-3` (centres unmarked) [drawing 303] was run?
Its EC50 is 0.01 to 1 µM.

What about the IC50 [2, 5] of the same molecule?
Its IC50 is 0.02 to 1 µM.

For `O=C(O)c1ccc2c(C3CCCCC3)c3n(c2c1)CC(C(=O)O)Cc1ccccc1-3` (centres unmarked) [drawing 305], which EC50 [3] is on record?
Its EC50 is > 10 µM.

What about the IC50 [2, 5] of the same molecule?
The IC50 was 0.02 to 1 µM.

From patent US7348425B2, “Inhibitors of HCV replication” (Bristol-Myers Squibb Company, priority 2004, dated 2008)
